Results from ChEMBL document CHEMBL5291721, “A preclinical secondary pharmacology resource illuminates target-adverse drug reaction associations of marketed drugs” (Nat Commun, 2023).

Columns and labels:
D(3) dopamine receptor = D(3) dopamine receptor (Homo sapiens, UniProt P35462)
Adenosine receptor A1 = target: T1, Adenosine receptor A1 (Homo sapiens, UniProt P30542)
T1 sequence (P30542 whole entry): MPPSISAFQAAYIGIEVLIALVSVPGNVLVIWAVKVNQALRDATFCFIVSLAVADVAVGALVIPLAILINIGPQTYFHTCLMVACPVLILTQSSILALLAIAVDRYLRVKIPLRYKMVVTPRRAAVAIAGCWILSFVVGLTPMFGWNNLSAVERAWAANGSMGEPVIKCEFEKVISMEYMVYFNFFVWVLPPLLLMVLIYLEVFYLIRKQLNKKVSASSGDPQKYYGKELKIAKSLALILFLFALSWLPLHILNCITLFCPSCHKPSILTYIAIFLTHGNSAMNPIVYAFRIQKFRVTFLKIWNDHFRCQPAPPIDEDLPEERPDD

[1] = target: T2, Cholecystokinin receptor type A (Homo sapiens, UniProt P32238)
T2 sequence (P32238 whole entry): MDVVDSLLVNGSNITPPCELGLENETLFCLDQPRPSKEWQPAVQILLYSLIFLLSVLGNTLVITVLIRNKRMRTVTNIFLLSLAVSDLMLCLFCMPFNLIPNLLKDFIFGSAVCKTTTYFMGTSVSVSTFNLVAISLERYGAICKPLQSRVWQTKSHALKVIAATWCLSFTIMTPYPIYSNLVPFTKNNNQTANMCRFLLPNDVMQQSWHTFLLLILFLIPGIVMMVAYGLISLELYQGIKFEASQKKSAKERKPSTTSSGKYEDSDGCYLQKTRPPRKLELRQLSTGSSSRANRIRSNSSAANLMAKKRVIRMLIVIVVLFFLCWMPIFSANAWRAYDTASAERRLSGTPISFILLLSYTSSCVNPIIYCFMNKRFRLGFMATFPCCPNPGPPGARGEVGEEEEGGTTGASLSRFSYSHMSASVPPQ

[2] = target: T3, 5-hydroxytryptamine receptor 2C (Homo sapiens, UniProt P28335)
T3 sequence (P28335 whole entry): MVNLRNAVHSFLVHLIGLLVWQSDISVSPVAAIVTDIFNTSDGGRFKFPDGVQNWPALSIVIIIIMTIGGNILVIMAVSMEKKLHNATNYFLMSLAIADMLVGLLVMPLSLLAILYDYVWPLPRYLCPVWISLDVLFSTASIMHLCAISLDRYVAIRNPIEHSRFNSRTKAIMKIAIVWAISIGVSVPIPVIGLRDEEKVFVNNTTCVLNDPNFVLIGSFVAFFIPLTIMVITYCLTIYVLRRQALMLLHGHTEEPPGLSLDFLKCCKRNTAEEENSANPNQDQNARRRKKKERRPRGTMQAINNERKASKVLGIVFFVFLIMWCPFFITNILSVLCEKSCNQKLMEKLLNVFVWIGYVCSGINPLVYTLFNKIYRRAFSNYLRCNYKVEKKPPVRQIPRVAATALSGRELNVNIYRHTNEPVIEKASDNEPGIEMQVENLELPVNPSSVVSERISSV

Adenosine receptor A2a = Adenosine receptor A2a (Homo sapiens, UniProt P29274)
[3] = target: Gamma-aminobutyric acid receptor subunit alpha-1 (Rattus norvegicus, UniProt P62813); type: functional
[4] = target: Neuronal acetylcholine receptor subunit alpha-4 (Homo sapiens, UniProt P43681)
[5] = target: T4, Prostaglandin G/H synthase 1 (Rattus norvegicus, UniProt Q63921); type: functional
T4 sequence (Q63921 whole entry): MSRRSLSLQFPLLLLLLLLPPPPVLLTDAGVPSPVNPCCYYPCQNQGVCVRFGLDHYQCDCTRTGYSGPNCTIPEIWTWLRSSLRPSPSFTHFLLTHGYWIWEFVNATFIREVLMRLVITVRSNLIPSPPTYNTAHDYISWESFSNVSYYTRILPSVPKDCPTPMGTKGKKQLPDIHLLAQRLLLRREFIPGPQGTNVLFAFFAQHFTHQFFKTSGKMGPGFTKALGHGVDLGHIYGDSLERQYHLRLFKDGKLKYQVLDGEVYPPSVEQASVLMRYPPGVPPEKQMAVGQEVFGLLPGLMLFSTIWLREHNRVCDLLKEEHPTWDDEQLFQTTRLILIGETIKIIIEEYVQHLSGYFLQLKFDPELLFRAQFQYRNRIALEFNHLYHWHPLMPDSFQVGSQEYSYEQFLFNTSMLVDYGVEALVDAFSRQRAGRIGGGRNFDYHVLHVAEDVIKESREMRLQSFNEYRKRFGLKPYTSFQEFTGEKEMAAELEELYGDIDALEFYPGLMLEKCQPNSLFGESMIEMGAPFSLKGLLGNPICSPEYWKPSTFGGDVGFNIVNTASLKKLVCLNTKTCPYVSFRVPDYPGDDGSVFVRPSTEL

Melanocortin receptor 3 = Melanocortin receptor 3 (Homo sapiens, UniProt P41968)
[6] = target: T5, Type-1 angiotensin II receptor (Homo sapiens, UniProt P30556)
T5 sequence (P30556 whole entry): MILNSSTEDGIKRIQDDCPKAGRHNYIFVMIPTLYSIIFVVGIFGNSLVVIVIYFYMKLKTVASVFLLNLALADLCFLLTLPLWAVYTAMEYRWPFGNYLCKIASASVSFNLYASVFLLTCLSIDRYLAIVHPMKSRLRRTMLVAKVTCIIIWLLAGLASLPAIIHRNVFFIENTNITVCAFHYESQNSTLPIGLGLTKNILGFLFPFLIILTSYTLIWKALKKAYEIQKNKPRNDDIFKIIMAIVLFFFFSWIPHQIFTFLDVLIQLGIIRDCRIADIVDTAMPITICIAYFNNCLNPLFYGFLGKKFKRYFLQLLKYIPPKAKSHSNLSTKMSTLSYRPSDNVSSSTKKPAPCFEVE
Also: assay procedure not described here.

Chain of Neuronal acetylcholine receptor subunit alpha-4 (P43681 whole entry): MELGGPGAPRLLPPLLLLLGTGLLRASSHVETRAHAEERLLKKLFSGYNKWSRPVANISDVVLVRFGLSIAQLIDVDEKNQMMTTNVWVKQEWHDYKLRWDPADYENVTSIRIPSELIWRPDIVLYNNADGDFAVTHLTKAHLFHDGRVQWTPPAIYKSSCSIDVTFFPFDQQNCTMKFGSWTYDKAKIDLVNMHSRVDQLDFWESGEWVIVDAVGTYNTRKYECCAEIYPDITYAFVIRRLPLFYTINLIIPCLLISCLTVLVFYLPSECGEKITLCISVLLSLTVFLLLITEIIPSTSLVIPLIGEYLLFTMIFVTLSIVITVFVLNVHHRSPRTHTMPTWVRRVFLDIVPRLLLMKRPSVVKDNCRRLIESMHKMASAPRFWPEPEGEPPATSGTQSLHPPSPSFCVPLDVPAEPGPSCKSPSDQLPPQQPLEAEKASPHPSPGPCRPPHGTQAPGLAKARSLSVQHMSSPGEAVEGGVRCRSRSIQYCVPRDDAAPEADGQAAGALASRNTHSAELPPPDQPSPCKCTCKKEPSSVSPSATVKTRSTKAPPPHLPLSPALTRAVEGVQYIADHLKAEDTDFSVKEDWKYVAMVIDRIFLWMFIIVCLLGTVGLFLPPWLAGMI
Chain of Gamma-aminobutyric acid receptor subunit alpha-1 (P62813 whole entry): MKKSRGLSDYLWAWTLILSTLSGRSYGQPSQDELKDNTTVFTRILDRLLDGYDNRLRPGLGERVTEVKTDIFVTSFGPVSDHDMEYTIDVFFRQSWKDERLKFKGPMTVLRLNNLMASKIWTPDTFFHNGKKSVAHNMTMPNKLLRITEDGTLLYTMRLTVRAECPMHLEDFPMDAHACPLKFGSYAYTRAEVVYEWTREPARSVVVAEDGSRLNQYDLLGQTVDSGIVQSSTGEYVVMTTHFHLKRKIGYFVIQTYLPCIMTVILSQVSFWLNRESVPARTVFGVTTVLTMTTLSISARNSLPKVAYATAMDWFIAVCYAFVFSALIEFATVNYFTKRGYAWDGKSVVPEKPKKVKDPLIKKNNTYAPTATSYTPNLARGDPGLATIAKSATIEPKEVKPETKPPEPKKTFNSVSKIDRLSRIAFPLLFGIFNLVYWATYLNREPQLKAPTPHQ
Chain of D(3) dopamine receptor (P35462 whole entry): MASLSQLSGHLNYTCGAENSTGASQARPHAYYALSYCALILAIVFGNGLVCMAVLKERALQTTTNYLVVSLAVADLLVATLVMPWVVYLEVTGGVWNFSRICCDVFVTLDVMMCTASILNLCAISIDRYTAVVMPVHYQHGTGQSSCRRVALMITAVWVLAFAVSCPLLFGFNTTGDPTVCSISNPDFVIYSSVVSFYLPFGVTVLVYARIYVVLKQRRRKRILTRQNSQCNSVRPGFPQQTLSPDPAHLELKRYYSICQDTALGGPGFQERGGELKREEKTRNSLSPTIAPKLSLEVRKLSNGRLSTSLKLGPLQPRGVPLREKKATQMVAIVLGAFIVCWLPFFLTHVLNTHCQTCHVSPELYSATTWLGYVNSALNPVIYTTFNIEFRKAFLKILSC
Chain of Melanocortin receptor 3 (P41968 whole entry): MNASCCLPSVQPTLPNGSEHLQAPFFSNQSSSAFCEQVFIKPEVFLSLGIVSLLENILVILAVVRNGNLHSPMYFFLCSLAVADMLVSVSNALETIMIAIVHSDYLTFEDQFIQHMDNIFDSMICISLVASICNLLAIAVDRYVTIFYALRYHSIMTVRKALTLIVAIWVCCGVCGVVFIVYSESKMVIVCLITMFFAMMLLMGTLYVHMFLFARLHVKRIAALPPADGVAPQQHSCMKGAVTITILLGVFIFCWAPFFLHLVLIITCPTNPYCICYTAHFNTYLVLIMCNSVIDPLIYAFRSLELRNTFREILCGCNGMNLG
Chain of Adenosine receptor A2a (P29274 whole entry): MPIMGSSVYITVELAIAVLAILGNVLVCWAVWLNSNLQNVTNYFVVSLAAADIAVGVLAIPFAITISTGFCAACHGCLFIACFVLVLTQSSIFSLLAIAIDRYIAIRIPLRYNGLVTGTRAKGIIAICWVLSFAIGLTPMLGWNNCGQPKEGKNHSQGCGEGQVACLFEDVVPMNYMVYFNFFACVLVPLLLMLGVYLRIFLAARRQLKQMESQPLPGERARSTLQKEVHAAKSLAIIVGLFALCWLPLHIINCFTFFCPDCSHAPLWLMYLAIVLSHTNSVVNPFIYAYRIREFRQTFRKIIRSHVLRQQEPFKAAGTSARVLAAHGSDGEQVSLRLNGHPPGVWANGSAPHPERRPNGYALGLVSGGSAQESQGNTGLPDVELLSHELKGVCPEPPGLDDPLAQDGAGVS

Compound | AC50 (D(3) dopamine receptor) [µM] | AC50 (Adenosine receptor A1) [µM] | AC50 [1] [µM] | AC50 [2] [µM] | AC50 (Adenosine receptor A2a) [µM] | AC50 [3] [µM] | AC50 [4] [µM] | AC50 [5] [µM] | AC50 (Melanocortin receptor 3) [µM] | AC50 [6] [µM]
CCN(CC)CCNC(=O)c1cc(Cl)c(N)cc1OC [METOCLOPRAMIDE] | 0.076 | > 30 | > 30 | > 10 | > 30 | > 10 | > 10 | > 30 | > 30 | > 30
CCOC(=O)[C@H](CCc1ccccc1)N[C@@H](C)C(=O)N1CCC[C@H]1C(=O)O | > 10 | > 30 | > 30 | > 10 | > 30 | > 10 | > 10 | > 30 | > 30 | > 30
CN(C)CCCN1c2ccccc2CCc2ccc(Cl)cc21 [CLOMIPRAMINE] | 0.3 | – | – | 0.53 | – | > 10 | > 10 | – | – | –
CC(C)Cc1ccc(CC(=O)O)cc1 [IBUFENAC] | > 30 | > 30 | > 30 | > 30 | > 30 | > 30 | > 30 | > 30 | > 30 | > 30
O=C(O)c1cc(-c2ccc(F)cc2F)ccc1O [DIFLUNISAL] | > 30 | > 10 | > 10 | > 30 | > 10 | > 10 | > 10 | > 10 | > 10 | > 10
CCc1ccc(CCOc2ccc(CC3SC(=O)NC3=O)cc2)nc1 (stereo unspecified) [PIOGLITAZONE] | > 10 | > 30 | > 30 | > 10 | > 30 | > 10 | – | > 30 | > 30 | > 30
CC(=O)c1ccc2c(c1)N(CCCN1CCN(CCO)CC1)c1ccccc1S2 [ACETOPHENAZINE] | 0.0044 | > 30 | > 30 | > 30 | > 30 | > 30 | > 30 | > 30 | > 30 | > 30
CC(C)C(=O)Nc1ccc([N+](=O)[O-])c(C(F)(F)F)c1 [FLUTAMIDE] | > 30 | > 30 | > 30 | > 30 | > 30 | > 10 | > 30 | > 10 | > 30 | > 10
CN1C(=O)CC(C)(c2ccccc2)C1=O (stereo unspecified) [METHSUXIMIDE] | > 30 | > 10 | > 10 | > 30 | > 10 | > 10 | > 10 | > 10 | > 10 | > 10
NC(N)=Nc1nc(CSCCC(N)=NS(N)(=O)=O)cs1 [FAMOTIDINE] | > 10 | > 30 | > 30 | > 10 | > 30 | > 10 | – | > 30 | > 30 | > 30
CC(N)Cc1ccccc1 (stereo unspecified) [AMPHETAMINE] | > 30 | 18 | > 30 | > 30 | 11 | > 30 | > 30 | > 30 | > 30 | > 30
CCc1nn(CCCN2CCN(c3cccc(Cl)c3)CC2)c(=O)n1CCOc1ccccc1 [NEFAZODONE] | 1.2 | > 30 | 13.3 | – | > 30 | > 10 | – | > 30 | > 30 | > 30
CCCS(=O)(=O)Nc1ccc(F)c(C(=O)c2c[nH]c3ncc(-c4ccc(Cl)cc4)cc23)c1F [VEMURAFENIB] | > 30 | > 30 | > 30 | > 30 | > 30 | > 30 | > 30 | > 30 | > 30 | > 30
NC[C@H]1CC[C@H](C(=O)O)CC1 [TRANEXAMIC ACID] | > 30 | > 10 | > 10 | > 30 | > 10 | > 10 | > 10 | > 10 | > 10 | > 10
CCC[C@@H]1C[C@@H](C(=O)N[C@@H]([C@H]2O[C@H](SC)[C@H](O)[C@@H](O)[C@H]2O)[C@H](C)Cl)N(C)C1 [CLINDAMYCIN] | > 10 | > 30 | > 30 | > 30 | > 30 | > 10 | > 10 | > 30 | > 30 | > 30
Cc1cccc(C)c1OCC(C)N (stereo unspecified) [MEXILETINE] | – | > 30 | > 30 | – | > 30 | – | > 30 | > 10 | > 30 | > 30
CN1CCCC(n2nc(Cc3ccc(Cl)cc3)c3ccccc3c2=O)CC1 (stereo unspecified) [AZELASTINE] | 6.5 | > 30 | > 30 | – | > 30 | > 30 | 17 | > 30 | > 30 | > 30
C#C[C@]1(O)CC[C@H]2[C@@H]3CCc4cc(O)ccc4[C@H]3CC[C@@]21C [ETHINYL ESTRADIOL] | > 10 | > 30 | > 30 | > 30 | > 30 | > 10 | – | 24.3 | > 30 | > 30
CC(=O)OCC(=O)[C@@]1(O)CC[C@H]2[C@@H]3CCC4=CC(=O)CC[C@]4(C)[C@H]3C(=O)C[C@@]21C [CORTISONE ACETATE] | – | – | – | > 30 | – | > 30 | – | – | – | –
COc1cc2c(cc1OC)C(=O)C(CC1CCN(Cc3ccccc3)CC1)C2 (stereo unspecified) [DONEPEZIL] | – | > 30 | > 30 | > 30 | > 30 | > 10 | > 10 | > 30 | > 30 | 15.6
O=C(NC[C@H]1CN(c2ccc(N3CCOCC3=O)cc2)C(=O)O1)c1ccc(Cl)s1 [RIVAROXABAN] | > 30 | – | – | > 30 | – | > 30 | – | > 30 | > 30 | –
